# Patent US9095578B2, “Adenylyl cyclases as novel targets for the treatment of infection by eukaryotic pathogens” (CORNELL RESEARCH FOUNDATION, INC., priority 2007, dated 2015)
# Experiments:
# [1] = system: adenylyl cyclase activity from Trypansoma brucei cell lysates; assay: adenylyl cyclase assay on whole cell lysate of the bloodstream form; assay type: biochemical, Trypanosoma brucei; details: 15 mM MgCl2, 1 mM ATP, pH 7.5, 30° C.; for effect on adenylyl cyclase activity in whole cell lysate: any concentration
# Description: The effect of these compounds on lysate activity was tested using whole cell lysate of the bloodstream form. Briefly, 5×10^6 cells were sonicated (on ice) in a lysis buffer consisting of 2 mM Tris-HCl, 15 mM KCl, 1 mM EDTA, 1 mM 2-mercaptoethanol, 100 μM PMSF, and 1 μg/mL aprotinin/leupeptin. Adenylyl cyclase assays were conducted using 20 μL of lysate/assay in the presence of 15 mM MgCl2 and 1 mM ATP in 50 mM Tris-HCl at pH=7.5 at 30° C. KH7.14 and KH7.15 had no effect on activity at any concentration while 100 μM KH7 stimulated AC activity in the whole cell lysate between 1.5-2 fold (see FIG. 2). The observation that KH7 prevents growth of bloodstream form cells in vitro via activation of adenylyl cyclase is consistent with the idea that the cAMP pathway controls the cell cycle.
# Candida = assay: morphological transition essential for pathogenesis, Candida; assay type: cell-based
# Cryptococcus = assay: morphological transition essential for pathogenesis, Cryptococcus; assay type: cell-based
# human sAC [2] = molecular target: T1, human sAC (Homo sapiens, UniProt Q96PN6); assay: in vivo cAMP accumulation assay, 4-4 cells (hsACt stably transfected into 293T) + IBMX; assay type: cell-based; details: 4-4, Basal column
# T1 construct: made in house
# T1 sequence (Q96PN6 1-469 limits assumed): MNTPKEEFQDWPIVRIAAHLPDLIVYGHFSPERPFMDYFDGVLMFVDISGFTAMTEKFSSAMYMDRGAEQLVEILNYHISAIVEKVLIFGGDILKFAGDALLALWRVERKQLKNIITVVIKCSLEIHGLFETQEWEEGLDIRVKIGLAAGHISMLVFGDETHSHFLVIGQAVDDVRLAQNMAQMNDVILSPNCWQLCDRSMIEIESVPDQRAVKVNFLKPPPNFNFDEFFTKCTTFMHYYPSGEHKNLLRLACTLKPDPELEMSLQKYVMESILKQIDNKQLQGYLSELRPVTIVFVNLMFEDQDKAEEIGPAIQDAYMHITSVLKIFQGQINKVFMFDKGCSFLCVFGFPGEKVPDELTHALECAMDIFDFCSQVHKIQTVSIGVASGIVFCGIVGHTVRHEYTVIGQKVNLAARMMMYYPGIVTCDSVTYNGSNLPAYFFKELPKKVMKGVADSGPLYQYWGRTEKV
# Description: 293T cells or 4-4 […] stably transfected into 293T) were grown in 75 cm2 Tissue Culture Flasks until nearly confluent using DMEM (10% FBS, 1% L-Glutamine, 1% Penicillin/Streptomycin). Cells were released from the flask with 3 ml of trypsin followed by addition of 7 ml of DMEM to neutralize the trypsin. Cells were mixed by pipetting up and down with 10 ml serological pipette. To a 3 ml aliquot of the cell mixture, 6 ml of DMEM (prewarmed to 37° C.) was added followed by thorough mixing by picking up the entire 9 mls using a repeat pipettor, and slowly pipetting out against the wall of container. This was repeated this ten times to ensure the mixture in homogenous. 100 μL of cells were then added to each pre-siliconized 1.7 ml Eppindorf tubes (Costar #3207) followed by a 60 min incubation at 37° C. and 5% CO2. This incubation was performed in 20-tube, round, floating racks (VWR #60986-100), which enable a quick transfer of the samples to a water bath, and the ability to mix several samples simultaneously. Following the incubation, 1 μL of the compound in DMSO was added (or just DMSO for controls). The cells were mixed before and after adding the compound, by a brief (and light) vortexing. The compounds were added while the cells were in the 37° C. water bath, followed by a 10 min incubation at 37° C. and 5% CO2. […] The 4-4 cells receive the IBMX to a final concentration of 500 μM IBMX. […]
# [3] = system: endogenous transmembrane adenylyl cyclases; assay: in vivo cAMP accumulation assay, 293T cells + IBMX and Forskolin; assay type: cell-based, human; details: 293T + FSK column
# Description: 293T cells or 4-4 cells (hsACt stably transfected into 293T) were grown in 75 cm2 Tissue Culture Flasks until nearly confluent using DMEM (10% FBS, 1% L-Glutamine, 1% Penicillin/Streptomycin). Cells were released from the flask with 3 ml of trypsin followed by addition of 7 ml of DMEM to neutralize the trypsin. Cells were mixed by pipetting up and down with 10 ml serological pipette. To a 3 ml aliquot of the cell mixture, 6 ml of DMEM (prewarmed to 37° C.) was added followed by thorough mixing by picking up the entire 9 mls using a repeat pipettor, and slowly pipetting out against the wall of container. This was repeated this ten times to ensure the mixture in homogenous. 100 μL of cells were then added to each pre-siliconized 1.7 ml Eppindorf tubes (Costar #3207) followed by a 60 min incubation at 37° C. and 5% CO2. This incubation was performed in 20-tube, round, floating racks (VWR #60986-100), which enable a quick transfer of the samples to a water bath, and the ability to mix several samples simultaneously. Following the incubation, 1 μL of the compound in DMSO was added (or just DMSO for controls). […] Following a 10 min incubation at room temperature, 30 μL of each sample was added to 70 μL of 0.1 N HCl and the cAMP levels were measured using the protocol for the Direct Cyclic AMP Kit (Assay Designs, Inc. # 901-066). […]
# human sAC [4] = molecular target: T1, human sAC; assay: in vitro adenylyl cyclase assay with purified human sAC protein; assay type: biochemical; details: 100 μM of compound; calcium and bicarbonate stimulated; activation instead of inhibition
# Description: Purified human sAC protein was used in an in vitro adenylyl cyclase assay. Purification of the protein is described in detail in Litvin et al. 2003. […] This paper also describes the general conditions for a sAC cyclase assay. The specific conditions for the in vitro assay are as follows.
# An aliquot of the master mixture was added to the purified human sAC. The assay mixture also included the indicated concentration of KH compound, or an equivalent volume of vehicle (i.e., DMSO) as control. The reaction was started by adding 5 mM ATP (total assay volume=100 μL). […] Stimulated assay conditions involve adding 40 mM bicarbonate and 5 mM CaCl2 to the above master mixture.
# Cyclic AMP levels were measured in each sample using the Correlate-EIA Direct Cyclic AMP assay kit from Assay Designs as per manufacturers instructions.
compound,measurement,setting,value
O=C(CSc1nc2ccccc2[nH]1)N/N=C/c1ccccn1 [KH7.14],effect on adenylyl cyclase activity in whole cell lysate,[1],no effect
CC(Sc1nc2ccccc2[nH]1)C(=O)N/N=C/c1cc(Br)ccc1O (centres unmarked) [KH7],stimulation of AC activity in the whole cell lysate,[1]; 100 μM,1.5-2 fold
same,morphological transition essential for pathogenesis,Candida,blocked
same,morphological transition essential for pathogenesis,Cryptococcus,blocked
C/C(=N\NC(=O)CSc1nc2ccccc2[nH]1)c1ccccc1 [KH7.108],"remark on cellular toxicity, 4-4 cells",human sAC [2],may be cellular toxicity
same,"remark on cellular toxicity, 293T cells",[3],may be cellular toxicity
COc1cc(/C=N/NC(=O)CSc2nc3ccccc3[nH]2)ccc1O [KH7.15],effect on adenylyl cyclase activity in whole cell lysate,[1],no effect
Cc1ccc(Cn2c(SCC(=O)N/N=C/c3ccncc3)nc3ccccc32)cc1 [KH7.142],"Activation, printed in column % Inhibition (100 μM), stimulated human sAC",human sAC [4],Activation @ 100
